“Also recorded” adds a separate entry of the source.
Experiments:
[1] = test system: guinea pigs; assay: Noise-induced hearing loss in guinea pigs, ABR threshold shift; type: in vivo, guinea pig; details: for permanent hearing loss 10 days post noise (FIG. 1), protection in words: Trolox 100 mg/kg once daily or 50 mg/kg twice daily, betahistine 30 mg/kg once daily or 18 mg/kg, versus saline control; for threshold shift, as averaged across all frequencies: ABR at 4, 8, 16 kHz, 10 days after 120 dB SPL Octave Band Noise centered at 4 kHz for 5 h, saline control about 45
[2] = in words; cited from earlier work
[3] = in words; cited from earlier work; remark: listed apart in the source
[4] = test system: guinea pigs; assay: Missing hair cells (hair cell counts, cytocochleograms) after noise exposure in guinea pigs; details: after 120 dB SPL noise for 5 h, in words
Procedure: After ABR testing, the guinea pigs are deeply anesthetized and decapitated. Temporal bones are quickly removed, dissected open and fixed with 4% paraformaldehyde. The following day, an otic capsule, lateral wall, and tectorial membrane are removed, and a bony modiolus is carefully detached. Organ of Corti tissue, attached to the modiolus, is permeabilized with 0.3% Triton-X and incubated with rhodamine phalloidin diluted 1:100 in phosphate buffered saline (30 min). After washing the tissues, individual turns from the organ of Corti are dissected, mounted on microscope slides, and examined and photographed using a Leica DMRB epiflourescence microscope. Hair cell counts are conducted, and cytocochleograms are prepared as known in the art.
Guinea pigs are treated with other compositions in order to compare the efficacy of the composition of the present disclosure with the other compositions. […] The guinea pigs are subjected to the same ABR testing, and the components of the ear are dissected, as described above in the Example to provide information on threshold shift and hair cell loss.
Eight groups of guinea pigs (where the number of guinea pigs ranges from 5 guinea pigs to 10 guinea pigs per group) are respectively treated with other compositions to compare the efficacy of the “ACEMg” composition of the present disclosure with the other compositions. […] The eight groups of guinea pigs are exposed to the same ABR testing, and the components of the ear are dissected as previously described in the Example to provide information on threshold shift and outer hair cell loss.

[5] = test system: guinea pigs; assay: Gentamicin-induced hair cell loss in guinea pigs (quantitative sensory hair cell assessment); type: in vivo, guinea pig
Procedure: In addition, outer hair cell loss and inner hair cell loss is measured both in the whole cochlea and in a trauma region of the cochlea. After treatment according to the method of the present disclosure, outer hair cell loss in the whole cochlea is less than 10%, and inner hair cell loss in the whole cochlea is less than 5%. Outer cell hair loss in the trauma region is less than 20%, while inner hair cell loss in the trauma region is less than 10%. […] To obtain those results, the composition is orally administered to guinea pigs for 10 to 16 days prior to first administration of the antibiotic, and the composition and antibiotic are administered again each day for forty days. The guinea pigs are then euthanized and the hair cells counted. Conversely, when the antibiotic is administered for forty days without administering the composition described herein in conjunction with the antibiotic, outer hair cell loss approaches 80%, while inner hair cell loss is about 8%.
The method of treating side effects of antibiotic treatment with the composition of the present disclosure is again performed on guinea pigs (normal hearing, male, pigmented). Six guinea pigs are subject to antibiotic administration and treatment with the composition of the present disclosure. The guinea pigs were fed with a chow containing the composition including beta-carotene, vitamin C, vitamin E, and magnesium in the amounts shown in Table 3 for 10 days prior to administration of a first dosage of gentamicin antibiotic, and were fed the same chow every day for 41 days. […] Fourteen days following cessation of antibiotic treatment, the guinea pigs were euthanized, left cochleae harvested, and quantitative sensory hair cell assessments were performed. […]
Six guinea pigs are subject to antibiotic administration in the absence of treatment with the composition of the present disclosure. […] Fourteen days following cessation of antibiotic treatment, the guinea pigs were euthanized, left cochleae harvested, and quantitative sensory hair cell assessments were performed.

[6] = antibiotic administered without the composition

Compound | permanent hearing loss 10 days post noise (FIG. 1), protection in words [1] | sensory cell death by hair cell counts, whole cochlea and trauma region, compared to the saline control [4] | threshold shift, as averaged across all frequencies [1] | other results
Cc1c(C)c2c(c(C)c1O)CCC(C)(C(=O)O)O2 (stereo not drawn) | less permanent hearing loss than control animals |  |  | 
Oc1ncnc2[nH]ncc12 [allopurinol] |  |  |  | reducing noise-induced hearing loss [2]: effective; reducing gentamicin-induced ototoxicity [3]: ineffective
CNCCc1ccccn1 [betahistine] | approximately the same amount of protection as those treated with vitamin E; also recorded: does not exhibit an additive effect |  |  | 
CN(CC(=O)O)C(=N)N [creatine] |  | reduced sensory cell death | about 34 decibels | 
O=S(=O)([O-])[O-].[Mg+2] [magnesium, magnesium sulfate] |  | reduced sensory cell death | about 41 decibels | sensory cell death by hair cell counts, whole cochlea and trauma region, compared to the saline control ([4]; listed as Mg): significantly reduced sensory cell death
gentamicin |  |  |  | inner hair cell loss [5, 6]: about 8%; outer hair cell loss [5, 6]: ~80%; ototoxic effect on hair cells ([5]; gentamicin 140 mg/kg s.c. once a day for 16 days, no composition, in words): dramatic cell death of outer hair cells
